Measurements from patent US8741932B2, “Imidazopyridine derivatives” (Piramal Enterprises Limited, priority 2009, dated 2014).

Key:
Assay type in all cases: cell-based
RPMI 8226 = experiment: Cytotoxicity assay (propidium iodide), RPMI 8226; conditions: Homo sapiens; RPMI 8226 (C7b, multiple myeloma); 48 hours
Method: (§1) Cells from cell lines as mentioned in the table given below were seeded at a density of 3000 cells/well in a white opaque 96-well plate. Following incubation at 37° C./5% CO2 for a period of 18-24 hours, the cells were treated with various concentrations (stock solution was prepared in DMSO and subsequent dilutions were made in media as per ATCC guidelines) of the representative compounds of present invention (refer table 3) for a period of 48 hours. At the end of treatment, the spent culture medium was discarded, the cells were washed with 1×PBS and 200 μl of 7 μg/ml propidium iodide was added to each well. The plates were frozen at −70° C. for at least 24 hours. For analysis, the plates were brought to RT, allowed to thaw and were read in PolarStar fluorimeter with the fluorescence setting. The percentage of viable cells in the non treated set of wells was considered to be 100 and the percentage viability following treatment was calculated accordingly. IC50 values were calculated from graphs plotted using these percentages.

MDA MB 468 = experiment: Cytotoxicity assay (propidium iodide), MDA MB 468; conditions: Homo sapiens; MDA MB 468 (C6b, breast); 48 hours
Method: as §1

U 87 MG = experiment: Cytotoxicity assay (propidium iodide), U 87 MG; conditions: Homo sapiens; U 87 MG (C8b, glioblastoma); 48 hours
Method: as §1

Measured: IC50

Cc1ccc(F)cc1S(=O)(=O)N(C)N=Cc1cnc2ccc(-c3cccnc3)cn12 [Example 21, 5-Fluoro-N, 2-dimethyl-N′-((6-(pyridine-3-yl)imidazo[1,2-a]pyridine-3-yl)methylene) benzenesulfonohydrazide]
10 to 5000 nM: all assays above
